Data published in patent US9034891B2, “Bicyclic heterocyclic spiro compounds” (ISRAEL INSTITUTE FOR BIOLOGICAL RESEARCH, priority 2009, dated 2015).
“And” between values parts separate entries of the source, which are not always exact repeats. Equal values may be shown once.

Key:
rat M1 mAChR = target: T1, rat M1 mAChR (Rattus norvegicus, UniProt P08482); experiment: αAPPs secretion in PC12 cells stably transfected with rat M1 mAChR; format: cell-based; conditions: 0.1 nM to 1 μM, not observed in untransfected PC12
T1 construct: expressed in transfected cells; host or cells: rat pheochromocytoma PC12 cells
T1 sequence (P08482 whole entry): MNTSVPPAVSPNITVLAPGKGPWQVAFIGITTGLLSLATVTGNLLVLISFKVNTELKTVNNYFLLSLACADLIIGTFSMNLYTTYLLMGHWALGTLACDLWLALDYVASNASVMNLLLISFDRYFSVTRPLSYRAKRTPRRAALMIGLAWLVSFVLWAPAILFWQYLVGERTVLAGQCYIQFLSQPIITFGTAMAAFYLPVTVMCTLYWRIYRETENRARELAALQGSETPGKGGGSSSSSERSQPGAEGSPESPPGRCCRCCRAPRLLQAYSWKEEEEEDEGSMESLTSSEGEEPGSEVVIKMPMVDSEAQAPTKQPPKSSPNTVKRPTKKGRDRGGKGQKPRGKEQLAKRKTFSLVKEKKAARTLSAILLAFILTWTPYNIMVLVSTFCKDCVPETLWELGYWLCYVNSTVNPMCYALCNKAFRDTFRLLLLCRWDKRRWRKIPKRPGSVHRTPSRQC
Experimental: α-APPs Secretion studies following incubation with the tested compounds were performed as described in Haring, et al. J. Neurochem., 1998, 71:2094-103. […] A day later, cells were washed twice with serum free media, and treated with the test compound at various concentrations ranging from 0.1 nM to 100 μM. […] After 1 hour the conditioned medium was collected to cold Eppendorf tubes, which included a protease inhibitor cocktail (0.1 mM phenylmethylsulphonyl fluoride (PMSF); 5 μg/ml leupeptin; 5 μg/ml pepstatin and 5 units/ml aprotinin) for determining αAPPs release. The protein content of each sample was concentrated using Centricon tubes (Amicon, Beverly, Mass.). […] CHO cells double transfected with human APP695 and M1 mAChR APPs bands were probed using anti-amyloid beta protein (1:1000, monoclonal 6E10 antibody, MAB1560, Chemicon) and peroxidase-linked rabbit anti mouse IgG (1:5,000; Jackson Immuno Research, PA). PC12 cells stably transfected with M1 mAChR APPs bands were probed using the anti-Alzheimer precursor protein A4 (1:4,000; monoclonal 22C11 antibody, Boehringer Mannheim) and the peroxidase-linked rabbit anti mouse IgG (1:20,000; Jackson Immuno Research, PA). […] Quantitative determination of the total APPs bands was performed by Scion Image program (NIH, Bethesda, USA). […]

GSK-3β = experiment: Phospho-GSK3β (Ser 9) western blot in PC12 cells transfected with M1 mAChR, +Aβ25-35; format: cell-based, rat; conditions: 100 μM-1 nM; Aβ25-35 20 μM
Excerpt: Anti-GSK-3 (Santa Cruz Biotechnology) is a phosphorylation-independent monoclonal antibody reactive with both GSK-3α and GSK3β. In the same experiments the status of tau protein phosphorylation was studied using mouse anti Tau-1 monoclonal antibody (Chemicon, CAT number MAB3420), which recognizes an unphosphorylated epitope of tau.

5HT Transporter = 5HT Transporter (Homo sapiens, UniProt P31645); experiment: High-throughput profiling, binding at 10 μM
Chain of 5HT Transporter (P31645 whole entry, species assumed): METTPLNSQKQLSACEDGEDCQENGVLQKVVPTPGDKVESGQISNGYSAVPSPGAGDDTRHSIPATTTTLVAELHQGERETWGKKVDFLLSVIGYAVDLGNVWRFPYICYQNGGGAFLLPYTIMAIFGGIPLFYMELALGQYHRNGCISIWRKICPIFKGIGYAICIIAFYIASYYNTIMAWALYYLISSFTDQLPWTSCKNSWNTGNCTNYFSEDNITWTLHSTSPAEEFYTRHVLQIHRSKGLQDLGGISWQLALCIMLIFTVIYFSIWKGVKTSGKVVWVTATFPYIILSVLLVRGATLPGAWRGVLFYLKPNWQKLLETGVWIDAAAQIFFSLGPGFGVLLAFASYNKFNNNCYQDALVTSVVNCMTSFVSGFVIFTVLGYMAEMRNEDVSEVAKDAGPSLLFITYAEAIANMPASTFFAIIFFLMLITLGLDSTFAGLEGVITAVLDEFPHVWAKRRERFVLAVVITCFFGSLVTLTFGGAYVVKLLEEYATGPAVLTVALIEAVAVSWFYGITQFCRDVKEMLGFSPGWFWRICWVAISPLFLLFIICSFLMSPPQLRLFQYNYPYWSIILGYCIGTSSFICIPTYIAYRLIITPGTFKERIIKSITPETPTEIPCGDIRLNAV
Excerpt: (§1) It was specifically designed to provide information not only on potential limitations of drug candidates, but also for off-target activity identification. […] In a further extension of this study, functional studies were done on most of these receptors.

5HT2A receptor = 5HT2A receptor (Homo sapiens, UniProt P28223); experiment: High-throughput profiling, binding at 10 μM
Chain of 5HT2A receptor (P28223 whole entry): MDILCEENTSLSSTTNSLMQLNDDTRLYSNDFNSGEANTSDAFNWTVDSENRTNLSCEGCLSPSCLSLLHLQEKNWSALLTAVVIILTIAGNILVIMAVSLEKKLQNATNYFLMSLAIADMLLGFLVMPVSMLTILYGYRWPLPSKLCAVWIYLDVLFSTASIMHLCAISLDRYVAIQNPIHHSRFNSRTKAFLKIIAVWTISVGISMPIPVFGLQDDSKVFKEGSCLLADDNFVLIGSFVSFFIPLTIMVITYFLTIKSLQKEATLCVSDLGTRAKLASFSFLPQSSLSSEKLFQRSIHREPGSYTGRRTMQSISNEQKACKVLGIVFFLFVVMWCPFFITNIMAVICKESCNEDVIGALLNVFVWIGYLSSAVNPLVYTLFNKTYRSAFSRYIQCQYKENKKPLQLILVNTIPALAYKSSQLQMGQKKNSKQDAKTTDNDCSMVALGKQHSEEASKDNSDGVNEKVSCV
Excerpt: as §1

5HT2B Receptor [1] = target: T2, 5HT2B Receptor (Homo sapiens, UniProt P41595); experiment: High-throughput profiling, binding at 10 μM
T2 sequence (P41595 whole entry): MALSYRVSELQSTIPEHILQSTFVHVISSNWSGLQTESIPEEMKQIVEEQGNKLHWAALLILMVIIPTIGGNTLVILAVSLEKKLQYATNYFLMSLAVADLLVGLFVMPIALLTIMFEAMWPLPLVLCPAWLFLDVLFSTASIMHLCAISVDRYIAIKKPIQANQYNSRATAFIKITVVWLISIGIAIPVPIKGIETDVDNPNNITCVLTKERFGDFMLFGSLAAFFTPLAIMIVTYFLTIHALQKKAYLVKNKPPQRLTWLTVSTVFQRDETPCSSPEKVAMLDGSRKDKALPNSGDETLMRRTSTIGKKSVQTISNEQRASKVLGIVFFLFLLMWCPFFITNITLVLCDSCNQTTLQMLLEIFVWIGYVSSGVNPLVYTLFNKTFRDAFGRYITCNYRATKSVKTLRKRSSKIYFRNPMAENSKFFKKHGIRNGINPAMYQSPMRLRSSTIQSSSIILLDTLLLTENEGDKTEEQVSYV
Excerpt: as §1

5HT2C Receptor = 5HT2C Receptor (Homo sapiens, UniProt P28335); experiment: High-throughput profiling, binding at 10 μM
Chain of 5HT2C Receptor (P28335 33-458): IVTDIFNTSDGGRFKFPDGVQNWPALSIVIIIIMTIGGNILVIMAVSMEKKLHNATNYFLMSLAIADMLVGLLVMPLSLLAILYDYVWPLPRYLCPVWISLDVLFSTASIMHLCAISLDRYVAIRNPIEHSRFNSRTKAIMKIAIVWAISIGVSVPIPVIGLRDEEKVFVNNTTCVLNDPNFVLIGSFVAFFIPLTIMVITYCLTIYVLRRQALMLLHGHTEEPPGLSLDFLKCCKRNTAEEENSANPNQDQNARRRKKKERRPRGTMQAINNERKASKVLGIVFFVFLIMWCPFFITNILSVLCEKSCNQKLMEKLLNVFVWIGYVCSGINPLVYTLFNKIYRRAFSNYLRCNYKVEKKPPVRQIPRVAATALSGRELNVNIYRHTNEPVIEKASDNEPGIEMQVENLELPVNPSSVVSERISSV
Excerpt: as §1

Histamine 2 Receptor = Histamine 2 Receptor (Homo sapiens, UniProt P25021); experiment: High-throughput profiling, binding at 10 μM
Chain of Histamine 2 Receptor (P25021 whole entry): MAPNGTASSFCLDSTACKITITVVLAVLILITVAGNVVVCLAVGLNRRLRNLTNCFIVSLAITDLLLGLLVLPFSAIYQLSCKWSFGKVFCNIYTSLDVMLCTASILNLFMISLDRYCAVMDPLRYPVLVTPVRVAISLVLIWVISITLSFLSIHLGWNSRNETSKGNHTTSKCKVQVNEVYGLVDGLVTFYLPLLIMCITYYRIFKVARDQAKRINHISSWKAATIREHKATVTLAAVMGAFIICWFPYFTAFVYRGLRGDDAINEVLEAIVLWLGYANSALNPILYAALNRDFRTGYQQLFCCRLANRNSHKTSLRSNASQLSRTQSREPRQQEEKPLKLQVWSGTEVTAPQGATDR
Excerpt: as §1

M2 mAChR = M2 mAChR (Homo sapiens, UniProt P08172); experiment: High-throughput profiling, binding at 10 μM
Chain of M2 mAChR (P08172 whole entry): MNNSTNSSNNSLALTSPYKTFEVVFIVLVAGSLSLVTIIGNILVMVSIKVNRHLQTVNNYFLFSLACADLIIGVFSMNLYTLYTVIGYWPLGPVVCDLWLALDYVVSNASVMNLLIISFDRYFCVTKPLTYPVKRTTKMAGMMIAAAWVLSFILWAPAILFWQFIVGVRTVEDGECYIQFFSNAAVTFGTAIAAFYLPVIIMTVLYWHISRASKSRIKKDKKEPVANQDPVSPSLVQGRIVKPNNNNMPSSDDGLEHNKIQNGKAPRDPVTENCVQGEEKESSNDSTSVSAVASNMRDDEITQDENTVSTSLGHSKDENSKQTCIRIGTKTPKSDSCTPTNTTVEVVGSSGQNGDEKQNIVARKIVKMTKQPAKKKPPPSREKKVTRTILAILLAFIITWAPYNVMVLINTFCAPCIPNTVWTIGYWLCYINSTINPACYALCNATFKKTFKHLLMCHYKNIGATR
Excerpt: as §1

Mu Receptor [2] = target: T3, Mu Receptor (Homo sapiens, UniProt P35372); experiment: High-throughput profiling, binding at 10 μM
T3 sequence (P35372 whole entry): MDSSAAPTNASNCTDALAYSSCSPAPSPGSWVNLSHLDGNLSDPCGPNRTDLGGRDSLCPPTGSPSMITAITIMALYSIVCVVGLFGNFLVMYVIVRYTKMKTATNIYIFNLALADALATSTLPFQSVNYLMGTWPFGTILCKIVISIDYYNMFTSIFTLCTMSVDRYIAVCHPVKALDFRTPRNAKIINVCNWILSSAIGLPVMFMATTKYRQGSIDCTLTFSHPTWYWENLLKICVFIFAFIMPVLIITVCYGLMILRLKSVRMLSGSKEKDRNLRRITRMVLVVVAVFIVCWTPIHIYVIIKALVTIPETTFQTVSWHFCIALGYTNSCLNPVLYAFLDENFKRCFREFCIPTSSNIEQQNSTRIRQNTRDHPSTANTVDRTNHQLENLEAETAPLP
Excerpt: as §1

Sigma Receptor = experiment: High-throughput profiling, binding at 10 μM
Excerpt: as §1

5HT2B Receptor [3] = target: T2, 5HT2B Receptor; experiment: Functional study, agonist; conditions: 100 μM
Excerpt: as §1

Mu Receptor [4] = target: T3, Mu Receptor; experiment: Functional study, agonist
Excerpt: as §1

Wistar rats = experiment: Passive avoidance, trihexyphenidyl-induced memory impairment in rats; format: in vivo, rat
Excerpt: (§2) Trihexyphenidyl is a selective M1 muscarinic antagonist that crosses the blood brain barrier and induces memory and learning impairments (Bymaster et al., J Pharmacol Exp. Ther. 267: 16-24, 1993; Roldan et al., Neurosci. Lett. 230: 93-96, 1997; Kimura et al., Brain Res. 834: 6-12, 1999). […] Naive Wistar rats were used in the experiments below. The passive avoidance (PA) task consists of a training (acquisition) phase and a retention phase. In the training procedure each rat was individually placed in the small illuminated compartment and after 60 s. of familiarization/adaptation, the door to the large compartment was opened and the latency to enter was measured (Initial Latency) Immediately following entry into the dark compartment, the door was closed and inescapable foot shock (0.6 mA for 3 s) was delivered through the grid floor. […] After the acquisition trial the rat was returned to its home cage. Retention of the passive avoidance task was measured 24 h later, by again placing the rat in the light compartment and after a 60 s adaptation interval, the door was opened and the latency to re-enter the dark compartment was measured. […] Two separate experiments were conducted. […] In both experiments the rats were divided into 2 groups. One main group was treated with trihexyphenidyl (5 mg/kg, s.c) and the second main group was treated with vehicle (DDW-1 ml/kg, s.c.), 30 min before the shock.
In a further extension of these studies, retention of the passive avoidance task was measured 72 h later, by again placing the rat in the light compartment and after a 60 s adaptation interval, the door was opened and the latency to re-enter the dark compartment was measured. A cutoff point of 600 s was used for retention latency. […] Rats were divided into 2 groups. One group (N=30) was treated with trihexyphenidyl (5 mg/kg, s.c) and the second group (N=29) was treated with vehicle (DDW-1 ml/kg, s.c.), 30 min before the shock.

rats = experiment: Passive avoidance, MK-801-induced impairment in rats; format: in vivo, rat
Excerpt: as §2
MK-801 is an NMDA antagonist that induces cognitive behavioral impairments in rodents. […] In the first experiment (dose-finding study of MK-801) rats were divided into 4 groups. Three groups (N=27) were treated with MK-801 (50, 80 or 100 μg/kg, s.c) and the fourth group (N=10) was treated with vehicle (saline-1 ml/kg, s.c.), 30 min before the shock. […] One group (N=80) was treated with MK-801 (80 μg/kg, s.c) and the second group (N=59) was treated with the vehicle (saline-1 ml/kg, s.c.).

With `C[C@@H]1SC2(CCN(C)CC2)CN1C(=O)CCc1c[nH]c2ccccc12` (single isomer, unassigned) [AF710B] the “release of αAPPs” value (rat M1 mAChR) was “enhanced the release of αAPPs”, the “overactivation of GSK-3β induced by Aβ25-35” value (GSK-3β) was “inhibited the overactivation of GSK-3β” and the “binding to 5HT Transporter” value (5HT Transporter) was “binds”. The “binding to 5 HT2A Receptor” value (5HT2A receptor) was “binds”, the “binding to 5HT2B Receptor” value (5HT2B Receptor [1]) was “binds” and the “binding to 5HT2C Receptor” value (5HT2C Receptor) was “binds”. The “binding to Histamine 2 Receptor” value (Histamine 2 Receptor) was “binds”, the “binding to M2 mAChR” value (M2 mAChR) was “binds” and the “binding to Mu Receptor” value (Mu Receptor [2]) was “binds”. The “binding to Sigma Receptor” value (Sigma Receptor) was “binds”, the “partial agonist efficacy on 5HT2B receptor” value (5HT2B Receptor [3]) was 17% and the EC50 (Mu Receptor [4]) was 13 µM. For the same molecule, the retention latency (Wistar rats; 1 μg/kg po, 72 h, cutoff 600 s, trihexyphenidyl+DDW 98.6±28.0, control 568.7±23.7) was 276.3 ± 60.7 s, the retention latency (Wistar rats; 10 μg/kg po, 72 h, cutoff 600 s) was 272.7 ± 51.6 s and the retention latency (Wistar rats; AF710B 10 μg/kg with NE-100 1 mg/kg) was 185.4 ± 44.0 s. The retention latency (Wistar rats; Experiment 1, 10 μg/kg po, 24 h, cutoff 300 s, trihexyphenidyl+DDW 54.22±14.60, control 242.00±30.60) was 252.50 ± 32.30 s, the retention latency (Wistar rats; Experiment 1, 30 μg/kg po, 24 h, cutoff 300 s) was 178.82 ± 32.70 s and the retention latency (Wistar rats; Experiment 1, 100 μg/kg po, 24 h, not different from trihexyphenidyl+DDW) was 122.00 ± 34.60 s. It also gave a retention latency (Wistar rats; Experiment 2, 1 μg/kg po, 24 h, trihexyphenidyl+DDW 63.89±18.79, control 274.70±20.8) of 215.6 ± 36.00 s, a retention latency (Wistar rats; Experiment 2, 3 μg/kg po, 24 h) of 219.80 ± 36.00 s and a retention latency (Wistar rats; NE-100 experiment, AF710B 10 μg/kg, trihexyphenidyl+DDW 122.0±29.2, control 525.7±51.0) of 361.7 ± 67.1 s. The “cognitive enhancer dose range” value (Wistar rats; po, trihexyphenidyl-induced passive avoidance impairment) was 1 to 30 µg/kg, the retention latency (rats; 10 μg/kg po, MK-801 80 μg/kg sc, MK-801+DDW 94.7±24.7) was 336.3 ± 70 s and 336.3 ± 70.0 s and the retention latency (rats; 30 μg/kg po, MK-801 80 μg/kg sc) was 370.0 ± 60 s and 370.0 ± 57.0 s. The retention latency (rats; 100 μg/kg po, MK-801 80 μg/kg sc) was 325.6 ± 66.6 s, the “retention latency vs. MK-801 rats treated with DDW” value (rats; 1, 3 and 5 or 300 μg/kg, po) was “not significantly different” and the retention latency (rats; AF710B 10 μg/kg with NE-100 1 mg/kg, MK801 80 μg/kg) was 184.8 ± 58.0 s. For the same molecule, the retention latency (rats; AF710B 30 μg/kg with NE-100 1 mg/kg, MK801 80 μg/kg) was 227.3 ± 38.5 s and the “cognitive enhancer dose range” value (rats; po, MK801-induced passive avoidance impairment) was 10 to 100 µg/kg.
